Laboratory results published in US10729742B2, “Screening method for the identification of agents capable of activating CD4+CD25+ regulatory T-cells through interactions with the HIV-1 GP120 binding site on CD4” (priority 2007, dated 2020).

Experiments:
CD4+CD25+ Treg cells [1] = assay: Coculture suppression assay B: CD8+ T effector cell proliferation (3H-Tdr incorporation) with CD4+CD25+ Treg cells and syngenic T cell-depleted PBMC; assay type: cell-based, human; settings: for proliferation of CD8+ T cells co-cultured with CD4+CD25+ Treg cells and inactivated syngenic CD3-depleted PBMC: FIG. 1 black bars, compared with CD8+ T cells without Tregs, 3H-Tdr incorporation 4 days later, effect dose-dependent; for proliferation of CD4+CD25+ Tregs: FIG. 1 white bars
Excerpt: In order to study the influence of a substance, e.g. HIV-1 gp120 which can bind at least to the epitope given in SEQ ID NO.:1 exclusively on the suppressive function of CD4^+CD25^+ Treg cells, we developed a co-culture assay which contained CD8^+ T cells as effectors to exclude any influence of this substance on the latter (CD8^+ T cells don't express CD4). […] To evaluate the influence of e.g. HIV-1 gp120 on the function of CD4^+CD25^+ Treg cells, isolated CD4^+CD25^+ Treg cells (2.1.4) are co-cultured with syngenic, T cell-depleted and irradiated (50 Gy) PBMC 2.1.6) and allogeneic CD8^+ T effector cells (2.1.3) in presence of varying concentrations (0.1-10 μg/ml) of different HIV-1 gp120 preparations. Briefly, 1×10^5 CD4^+CD25^+ Treg cells are incubated with 3×10^5 syngenic T cell-depleted PBMC in the presence or absence of varying amounts of HIV-1 gp120. Stimulation with 0.5 μg/ml anti-CD3 monoclonal antibody (OKT-3, ebioscience, USA) serves as positive control. No additional stimulation represents negative control. Either immediately or 24 h. later, 1×10^5 allogeneic CD8^+ T effector cells are added to the cultures and proliferation is determined after additional 72 h. by ^3H-Tdr incorporation (37 kBq/well). Functional activation of CD4^+CD25^+ Treg cells via interaction with the epitope as set forth in SEQ ID NO:1 result in suppressed proliferation of CD8^+ T effector cells and therewith identifies a substance as a Treg cell activator (Data see FIG. 1).
After 3-4 days of incubation of cells in assays provided under (2.2.1), (2.2.2) and (2.2.3) T cell proliferation is measured. For additional 16 h., cells are pulsed with ^3H-Tdr (37 kBq/well, MB Biomedicals), and incorporated radioactivity is measured by using a liquid scintillation counter (Betaplate, Wallac/PerkinElmer). In the absence of a Treg cell activating compound, resting Treg cells cannot inhibit the proliferation of CD4^+ T helper cells or CD8^+ T effector cells (negative control). In contrast, in presence of an activating CD4-binding compound or anti-CD3 monoclonal antibody (positive control) the proliferation of CD4^+ T helper cells or CD8^+ T effector cells is suppressed by CD4^+CD25^+ Treg cells. A reduced incorporated radioactivity resembles suppressed proliferation and identifies CD4^+ T helper cell or CD8^+ T effector cell inhibition and therewith identifies that a CD4^+CD25^+ Treg cell has been activated.
In order to study the influence of HIV-1 gp120 exclusively on the function of CD4^+CD25^+ Treg cells, we developed a coculture assay which contained CD8^+ T cells as effectors to exclude any influence of HIV-1 gp120 on the latter. Therefore, isolated CD4^+CD25^+ Treg cells are cocultured with T cell-depleted syngenic PBMC and allogeneic CD8^+ T effector cells. […] (All HIV-1 gp120 proteins: Protein Sciences Corp. Meriden, USA).
1×10^5 isolated CD25^+ Treg cells were incubated with 3×10^5 irradiated (50 Gy) syngenic T cell-depleted PBMC and 1×10^5 allogeneic CD8^+ T effector cells in presence/absence of different HIV-1 gp120 preparations, addition of 0.5 μg/ml anti-CD3 (OKT-3) served as positive control. Proliferation was determined by ^3H-Tdr-Incorporation 4 days later.
Grey bars represent proliferation of CD8^+ T cells and inactivated syngenic CD3-depleted PBMC, white bars represent the proliferation of CD4^+CD25^+ Tregs and the black bars represent the proliferation of CD8^+ T cells co-cultured with CD4^+CD25^+ Tregs cells and inactivated syngenic CD3-depleted PBMC. Due to inactivation PBMC don't contribute to proliferation of the samples.

CD4+CD25+ Treg cells [2] = assay: Cytosolic cAMP measurement in CD4+CD25+ Treg cells (cAMP-specific ELISA); assay type: cell-based, human; settings: FIG. 2; 1 μg/ml, 16 hours of stimulation, 1×10^6 T cells
Protocol: Stimulation of Treg cells results in strong increase of cytosolic (i.e. intracellular) cAMP. Therefore, the analysis of cAMP in Treg cells is an additional method to determine whether a substance which can interfere with HIV-1 gp120 binding to CD4 epitope of a CD4-positive cell can activate a Treg cell. In this assay freshly isolated CD4^+CD25^+ Treg cells (according to 2.1.4) (1×10^5-1×10^6/well) are incubated with anti-CD3 monoclonal antibody (OKT-3; 0.5 μg/ml) or HIV-1 gp120 (0.1-10 μg/ml; Protein Science Corp., Meriden, Conn., USA) or left untreated for 16 hours. To assess cytosolic cAMP-concentrations a cAMP-specific ELISA (Parameter™ Cyclic AMP Assay, Cat. No. KGE002; R&D Systems, Wiesbaden, Germany) is applied. […]
Activation of Treg cells by the test compound results directly in an increase of cytosolic cAMP. In the absence of a Treg cell activating compound no increase of cAMP in CD4^+CD25^+ Treg cells is detected (negative control). […]
CD4^+CD25^+ regulatory T cells (CD25) are left untreated (0) or stimulated with an anti-CD3 monoclonal Antibody (OKT-3; 1 μg/ml) or HIV-1 gp120 (1 μg/ml). Upon 16 hours of stimulation the CD4^+CD25^+ regulatory T cells are lysed (1×10^7/ml) and the cytosolic cAMP concentration of 1×10^6 T cells is assessed using a cAMP-specific ELISA. […]

NOD-Scid mice [3] = assay: GVHD induced by transfer of human CD25-depleted PBMC into NOD-Scid mice; lack of weight increase/weight loss as score; assay type: in vivo; settings: FIG. 5; 5 μg HIV gp120 injected together with CD25-depleted PBMC, intraperitoneal
Excerpt: NOD-Scid mice at the age of three to six days after birth are intraperitoneally injected with 1×10^7 human CD25-depleted PBMC (isolation of human CD25-depleted PBMC according to 2.1.7). GVHD is induced by 1×10^7 human CD25-depleted PBMC at the same magnitude as by transfer of 1×10^7 human non CD25-depleted PBMC into NOD-Scid mice. […] Prevention of GVHD by HIV gp120 or a substance which can interfere with HIV-1 gp120-binding depends on regulatory T cells. Lack of weight increase/weight loss is used as a parameter to score GVHD severity. Data see FIG. 5.
Three to six days old NOD-Scid mice are intraperitoneally injected with 1×10^7 human CD25-depleted PBMC without (circles) or together with 5 μg HIV gp120 (triangles). […] Lack of weight increase/weight loss is used as a parameter to score GVHD severity.

NOD-Scid mice [4] = assay: GVHD induced by transfer of human PBMC into NOD-Scid mice; lack of weight increase/weight loss as score; assay type: in vivo; settings: FIG. 4; 5 μg HIV gp120 injected together with PBMC, intraperitoneal, three to six days old mice
Excerpt: NOD-Scid mice, non-obese diabetic/severe combined immunodeficient mice, (mutant allele: Prkdc^Scid strain: NOD.CB 17-Prkdc^Scid, (Shultz et al. 1995)) from the Central Laboratory Animal Facility of the University of Mainz (also purchasable from The Jackson Laboratory via Charles River Laboratories, Germany) are used as an animal model for transfer of peripheral human immune cells and thus for the in vivo analysis of immuno-regulatory interactions (Hesselton et al. 1995). Human peripheral blood mononuclear cells (PBMC) transferred into NOD-Scid mice induce an accelerating […] graft-versus-host disease (GVHD). While the number of cells transferred determines the onset of this disease, the co-transfer of human Tregs can gradually delay or prevent the disease. This model system further allows the study of human Treg function. To induce a GVHD NOD-Scid mice at the age of three to six days after birth are intraperitoneally injected with 1×10^7 to 3×10^7 human PBMC (isolation of human PBMC according to 2.1.1). GVHD is induced by immunological (xenogenic) activation of human effector T cells in the PBMC fraction injected into the mice. NOD-Scid mice, however, are not able to react against the grafted human PBMC. […]

Substance | proliferation of CD8+ T cells co-cultured with CD4+CD25+ Treg cells and inactivated syngenic CD3-depleted PBMC (CD4+CD25+ Treg cells [1]) | proliferation of CD4+CD25+ Tregs (CD4+CD25+ Treg cells [1]; 3H-Tdr incorporation) | cytosolic (intracellular) cAMP in Treg cells compared to untreated control (CD4+CD25+ Treg cells [2]) | development of GVHD (relative body weight) after transfer of 1×10^7 human CD25-depleted PBMC (NOD-Scid mice [3]) | development of GVHD (relative body weight) after transfer of 1×10^7 human PBMC (NOD-Scid mice [4]) | proliferation of CD8+ T cells and inactivated syngenic CD3-depleted PBMC, without Tregs (CD4+CD25+ Treg cells [1]; FIG. 1 grey bars, 3H-Tdr incorporation)
HIV-1 gp120 MN: HIV-1 gp120 preparation MN, Protein Sciences Corp. Meriden, USA | reduced proliferation | don't show a significant proliferation |  |  |  | 
HIV-1 gp120 CM: HIV-1 gp120 preparation CM, Protein Sciences Corp. Meriden, USA | reduced proliferation | don't show a significant proliferation |  |  |  | 
HIV-1 gp120: human immune deficiency virus 1 (HIV-1) glycoprotein gp120, binds CD4; Protein Sciences Corp. |  |  | increase of intracellular cAMP | not protected from development of GVHD | protected from development of GVHD | 
HIV-1 gp120 LAV: HIV-1 gp120 preparation LAV, Protein Sciences Corp. Meriden, USA | reduced proliferation | don't show a significant proliferation |  |  |  | 
anti-CD3: anti-CD3 monoclonal antibody (OKT-3, ebioscience, USA), positive control [reference compound] | reduced proliferation | don't show a significant proliferation | increase of intracellular cAMP |  |  | strong increased proliferation
